Laboratory results published in patent US6716834B2, “Thiochromane derivatives and their use as thrombin inhibitors” (AstraZeneca AB, priority 2000, dated 2004).

How the values were obtained:
[1] = Test G: Metabolic Activation of Prodrug Compounds in vitro; format: in vitro ADME, human or rat
Description: Metabolic Activation of Prodrug Compounds in vitro
Prodrug compounds of formula IA are incubated at 37° C. with liver microsomes or 10 000 g (referring to the centrifuge speed) supernatant fractions (i.e. s9 fraction) prepared from human or rat liver homogenate. The total protein concentration in the incubations are 1 or 3 mg/mL dissolved in 0.05 mol/L TRIS buffer (pH 7.4), and with the cofactors NADH (2.5 mmol/L) and NADPH (0. 8 mmol/L) present. The total volume of the incubate is 1.2 mL. The initial prodrug concentrations are 5 or 10 ? mol/L. Samples are collected from the incubate at regular is intervals more than 60 minutes after the start of the incubations. Samples (25 ? L) from the incubate are mixed with an equal volume of human or rat plasma and an appropriate amount of thrombin, and the clotting time (i.e. thrombin time) is measured on a coagulometer (KC 10; Amelung). The amount of “active” thrombin inhibitor formed is estimated by the use of standard curves relating the thrombin time in pooled citrated human or rat plasma to known concentrations of the corresponding “active thrombin inhibitor”.
The amount of “active” thrombin inhibitor is alternatively, or in addition to the above-mentioned method, estimated by the use of LC-MS.

Human thrombin = molecular target: T1, Human thrombin (Homo sapiens, UniProt P00734); test: Test A: Determination of Thrombin Clotting Time (TT); format: biochemical; conditions: concentration of inhibitor that doubles the thrombin clotting time in plasma
T1 construct: purchased Sigma Chem. Co or Hematologic Technologies T 6769
Description: Determination of Thrombin Clotting Time (TT)
The inhibitor solution (25 ? L) is incubated with plasma (25 ? L) for three minutes. Human thrombin (T 6769; Sigma Chem. Co or Hematologic Technologies) in buffer solution, pH 7.4 (25 ? L, 4.0 NIH units/mL), is then added and the clotting time measured in an automatic device (KC 10; Amelung).
The thrombin clotting time (TT) is expressed as absolute values (seconds) as well as the ratio of TT without inhibitor (TT0) to TT with inhibitor (TTi). The latter ratios (range 1-0) are plotted against the concentration of inhibitor (log transformed) and fitted to sigmoidal dose-response curves according to the equation
where: a=maximum range, i.e. 1; s=slope of the dose-response curve; and IC50=the concentration of inhibitor that doubles the clotting time. The calculations are processed on a PC using the software program GraFit Version 3, setting equation equal to: Start at 0, define end=1 (Erithacus Software, Robin Leatherbarrow, Imperial College of Science, London, UK).

[2] = Test E: Determination of Thrombin Time ex vivo (bioavailability of active inhibitor after prodrug administration); format: in vivo; conditions: rat
From the text: Determination of Thrombin Time ex vivo
The inhibition of thrombin after oral or parenteral administration of the compounds of formula I, dissolved in ethanol:Solutol3:water (5:5:90), is examined in conscious rats which, one or two days prior to the experiment, are equipped with a catheter for blood sampling from the carotid artery. On the experimental day blood samples are withdrawn at fixed times after the administration of the compound into plastic tubes containing 1 part sodium citrate solution (0.13 mol per L) and 9 parts of blood. The tubes are centrifuged to obtain platelet poor plasma. The plasma is used for determination of thrombin time or ecarin clotting time (ECT) as described below.
The citrated rat plasma, 100 ? L, is diluted with a saline solution, 0.9%, 100 ? […] The clotting time is measured in an automatic device (KC 10, Amelung, Germany). […]
Based on the estimated plasma concentrations of the active thrombin inhibitor (which assumes that thrombin time or ECT prolongation is caused by the aforementioned compound) in the rat, the area under the curve after oral and/or parenteral administration of the corresponding prodrug compound of formula I is calculated (AUCpd) using the trapezoidal rule and extrapolation of data to infinity.
The bioavailability of the active thrombin inhibitor after oral or parenteral administration of the prodrug is calculated as below: […]

| Compound | IC50 (Human thrombin) | also measured |
| --- | --- | --- |
| COc1cc(Cl)cc2c1S(=O)(=O)CC[C@]2(O)C(=O)N1CC[C@H]1C(=O)NCc1ccc(C(N)=NC(=O)OC2CCCC2)cc1 [Example 5, (R)-6-Chloro-4-hydroxy-8-methoxy-1,1-dioxothiochromane-4-yl-C(O)-Aze-Pab(C(O)-O-cyclopentyl)] |  | oral and/or parenteral bioavailability as the corresponding active inhibitor (free amidine) [1]: exhibit oral and/or parenteral bioavailability in the rat as the corresponding active inhibitor (free amidine) |
| N=C(N)c1ccc(CNC(=O)[C@@H]2CCN2C(=O)[C@@]2(O)CCS(=O)(=O)c3ccc(Cl)cc32)cc1 [Example 3, (R)-6-Chloro-4-hydroxy-1,1-dioxothiochromane-4-yl-C(O)-Aze-Pab] | < 50 nM |  |
| COc1cc(Cl)cc2c1S(=O)(=O)CC[C@]2(O)C(=O)N1CC[C@H]1C(=O)NCc1ccc(C(N)=NOCc2ccccc2)cc1 [Example 4, (R)-6-Chloro-4-hydroxy-8-methoxy-1,1-dioxothiochromane-4-yl-C(O)-Aze-Pab(OBn)] |  | oral and/or parenteral bioavailability as the corresponding active inhibitor (free amidine) [1]: exhibit oral and/or parenteral bioavailability in the rat as the corresponding active inhibitor (free amidine) |
| COc1cc(Cl)cc2c1S(=O)(=O)CC[C@]2(O)C(=O)N1CC[C@H]1C(=O)NCc1ccc(C(=N)N)cc1 [Example 1, (R)-6-Chloro-4-hydroxy-8-methoxy-1,1-dioxothiochromane-4-yl-C(O)-Aze-Pab] | < 50 nM |  |
| CON=C(N)c1ccc(CNC(=O)[C@@H]2CCN2C(=O)[C@@]2(O)CCS(=O)(=O)c3c(Cl)cc(Cl)cc32)cc1 [Example 6, (R)-6,8-Dichloro-4-hydroxy-1,1-dioxothiochromane-4-yl-C(O)-Aze-Pab(OMe)] |  | oral and/or parenteral bioavailability as the corresponding active inhibitor (free amidine) ([1]; Test G as printed): exhibit oral and/or parenteral bioavailability in the rat as the corresponding active inhibitor (free amidine); oral and/or parenteral bioavailability as the corresponding active inhibitor (free amidine) [2]: exhibit oral and/or parenteral bioavailability in the rat as the corresponding active inhibitor (free amidine) |
| N=C(N)c1ccc(CNC(=O)C2CCN2C(=O)C2(O)CCS(=O)(=O)c3c(OC(F)F)cc(Cl)cc32)cc1 (centres unmarked) [Example 7, 6-Chloro-8-difluoromethoxy-4-hydroxy-1,1-dioxothiochromane-4-yl-C(O)-Aze-Pab] | < 50 nM |  |
| COc1cc(Cl)cc2c1[S+]([O-])CCC2(O)C(=O)N1CCC1C(=O)NCc1ccc(C(=N)N)cc1 (single isomer, unassigned) [Example 8, 6-Chloro-4-(R)-hydroxy-8-methoxy-1-(R or S)-oxo-thiochromane-4-yl-C(O)-Aze-PabxTFA] | < 50 nM |  |
